pIC50, pKd: −log10 of the molar value. Where two headings read alike, the source gives them in different places.
Assays:
CoREST complex = assay: Chemoproteomic binding profiling, K562 cell extract, SAHA/ITF2357 probe matrix (Kd app); design: species or system human
HDAC6 = molecular target: T1, HDAC6 (Homo sapiens, UniProt Q9UBN7); assay: as above; design: used to probe endogenous HDACs in K562 whole cell extracts; endogenous in cells; conditions: for binding profile for HDAC6 (in words): K562 cell extract
T1 sequence (Q9UBN7 1-1215): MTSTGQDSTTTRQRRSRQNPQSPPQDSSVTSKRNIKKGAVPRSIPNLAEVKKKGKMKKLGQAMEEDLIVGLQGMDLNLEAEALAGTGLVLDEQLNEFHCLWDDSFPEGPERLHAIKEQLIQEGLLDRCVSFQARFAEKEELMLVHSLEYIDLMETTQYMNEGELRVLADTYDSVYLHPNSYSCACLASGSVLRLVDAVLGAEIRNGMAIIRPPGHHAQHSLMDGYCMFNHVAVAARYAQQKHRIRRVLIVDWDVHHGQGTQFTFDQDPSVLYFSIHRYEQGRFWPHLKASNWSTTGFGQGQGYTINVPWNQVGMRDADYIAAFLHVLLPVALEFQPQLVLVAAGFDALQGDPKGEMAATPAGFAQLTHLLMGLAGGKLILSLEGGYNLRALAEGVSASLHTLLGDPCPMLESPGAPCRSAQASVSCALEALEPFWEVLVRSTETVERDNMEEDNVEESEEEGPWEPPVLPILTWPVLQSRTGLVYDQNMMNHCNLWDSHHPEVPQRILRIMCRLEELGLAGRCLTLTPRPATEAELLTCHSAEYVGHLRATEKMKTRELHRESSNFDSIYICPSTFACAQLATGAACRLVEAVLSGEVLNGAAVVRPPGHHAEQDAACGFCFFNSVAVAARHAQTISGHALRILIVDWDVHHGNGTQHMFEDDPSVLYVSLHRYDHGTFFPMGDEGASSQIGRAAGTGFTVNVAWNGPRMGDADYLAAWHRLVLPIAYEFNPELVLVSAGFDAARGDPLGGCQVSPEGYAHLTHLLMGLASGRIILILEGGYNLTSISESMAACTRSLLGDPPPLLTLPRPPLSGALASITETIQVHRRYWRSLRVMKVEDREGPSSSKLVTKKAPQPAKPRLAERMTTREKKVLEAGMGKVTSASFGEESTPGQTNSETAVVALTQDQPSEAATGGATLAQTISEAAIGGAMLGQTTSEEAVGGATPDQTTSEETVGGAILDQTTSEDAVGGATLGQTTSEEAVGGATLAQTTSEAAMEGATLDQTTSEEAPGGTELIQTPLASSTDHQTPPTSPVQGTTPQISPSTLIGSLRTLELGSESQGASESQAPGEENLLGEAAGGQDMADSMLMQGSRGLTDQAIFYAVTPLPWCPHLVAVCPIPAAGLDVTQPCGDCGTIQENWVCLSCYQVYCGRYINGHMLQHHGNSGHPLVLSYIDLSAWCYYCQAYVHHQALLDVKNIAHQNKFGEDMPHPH

HDAC10 = molecular target: T2, HDAC10 (Homo sapiens, UniProt Q969S8); assay: as above; conditions: for binding profile for HDAC10 (in words): K562 cell extract
T2 construct: used to probe endogenous HDACs in K562 whole cell extracts; endogenous in cells
T2 sequence (Q969S8 1-669): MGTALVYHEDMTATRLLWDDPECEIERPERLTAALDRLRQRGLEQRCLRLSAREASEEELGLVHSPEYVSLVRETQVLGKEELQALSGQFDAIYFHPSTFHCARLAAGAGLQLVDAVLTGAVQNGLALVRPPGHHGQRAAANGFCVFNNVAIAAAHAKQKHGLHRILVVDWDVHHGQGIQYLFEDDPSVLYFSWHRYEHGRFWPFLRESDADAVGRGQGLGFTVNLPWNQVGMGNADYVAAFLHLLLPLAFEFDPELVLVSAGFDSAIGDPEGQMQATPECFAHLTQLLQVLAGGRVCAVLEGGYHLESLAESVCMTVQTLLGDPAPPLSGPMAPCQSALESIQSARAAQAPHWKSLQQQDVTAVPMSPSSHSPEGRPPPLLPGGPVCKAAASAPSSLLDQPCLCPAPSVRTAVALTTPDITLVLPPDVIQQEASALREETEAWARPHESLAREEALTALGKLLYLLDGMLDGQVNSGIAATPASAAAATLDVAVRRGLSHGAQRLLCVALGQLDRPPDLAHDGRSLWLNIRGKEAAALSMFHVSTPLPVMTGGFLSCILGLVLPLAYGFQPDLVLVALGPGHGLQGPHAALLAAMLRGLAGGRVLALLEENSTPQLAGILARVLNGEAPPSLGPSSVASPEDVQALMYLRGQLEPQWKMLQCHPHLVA

HDAC1 = molecular target: T3, HDAC1 (Homo sapiens, UniProt Q13547); assay: as above; conditions: protein HDAC1; class I HDAC; read-out: Kd^app HDAC1
T3 construct: used to probe endogenous HDACs in K562 whole cell extracts; endogenous in cells
T3 sequence (Q13547 whole entry): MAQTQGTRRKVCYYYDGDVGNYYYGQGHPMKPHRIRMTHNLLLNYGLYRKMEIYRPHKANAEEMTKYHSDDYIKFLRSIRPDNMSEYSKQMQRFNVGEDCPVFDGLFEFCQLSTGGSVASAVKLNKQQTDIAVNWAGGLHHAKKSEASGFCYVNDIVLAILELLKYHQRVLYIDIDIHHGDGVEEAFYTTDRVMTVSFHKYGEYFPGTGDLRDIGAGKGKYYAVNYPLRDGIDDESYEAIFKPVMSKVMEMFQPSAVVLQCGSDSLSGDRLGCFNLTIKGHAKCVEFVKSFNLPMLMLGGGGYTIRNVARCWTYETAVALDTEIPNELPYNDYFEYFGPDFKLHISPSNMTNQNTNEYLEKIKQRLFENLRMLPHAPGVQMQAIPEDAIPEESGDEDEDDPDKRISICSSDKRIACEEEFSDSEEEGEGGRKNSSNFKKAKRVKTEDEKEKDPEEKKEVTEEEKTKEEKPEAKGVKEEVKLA

MIER1 = assay: Chemoproteomic binding profiling, K562 cell extract, SAHA/ITF2357 probe matrix (Kd app), ELSA (ELM-SANT) domain protein; design: species or system human; conditions: ELSA (ELM-SANT) domain proteins
MBD3 = assay: Competition binding assay in cell lysate, affinity matrix, MS (Mi-2/NuRD interactor); conditions: K-562 cell lysate
DNTTIP1 = assay: Competition binding assay in cell lysate, affinity matrix, MS; conditions: K-562 cell lysate
[1] = test system: acetylated histones H3 and H4; assay: Cell-based histone acetylation assay (immunofluorescence, western blotting); design: species or system human; conditions: K562 and HeLa cells
[2] = protein GSE1, CoREST complex, read-out: Kd^app GSE1
[3] = protein HMG20A, CoREST complex, read-out: Kd^app HMG20A
[4] = protein HMG20B, CoREST complex, read-out: Kd^app HMG20B
[5] = protein RCOR1, CoREST complex, read-out: Kd^app RCOR1
[6] = protein RCOR2, CoREST complex, read-out: Kd^app RCOR2
[7] = protein RCOR3, CoREST complex, read-out: Kd^app RCOR3
[8] = protein ZMYM2, CoREST complex, read-out: Kd^app ZMYM2
[9] = protein ZMYM3, CoREST complex, read-out: Kd^app ZMYM3
[10] = protein HDAC6, class II HDAC, read-out: Kd^app HDAC6
[11] = protein HDAC10, class II HDAC, read-out: Kd^app HDAC10

| Compound | pKd (CoREST complex; [2]) | pKd (CoREST complex; [3]) | pKd (CoREST complex; [4]) | pKd (CoREST complex; [5]) | pKd (CoREST complex; [6]) | pKd (CoREST complex; [7]) | pKd (CoREST complex; [8]) | pKd (CoREST complex; [9]) | binding profile for HDAC6 (in words) (HDAC6) | pKd (HDAC6; [10]) | binding profile for HDAC10 (in words) (HDAC10) | pKd (HDAC10; [11]) | pKd (HDAC1) | pKd (MIER1) | pIC50 (MBD3) | pIC50 (DNTTIP1) | histone acetylation (in words) [1] | other results |
| --- | --- | --- | --- | --- | --- | --- | --- | --- | --- | --- | --- | --- | --- | --- | --- | --- | --- | --- |
| Nc1ccccc1NC(=O)CCCCCCC(=O)Nc1ccccc1 [BML-210] | 4.29 | 4.40 | 4.30 | 4.34 | 4.07 | 4.26 | < 4.07 | < 4.07 | complete loss of potency for class IIb | < 4.07 | complete loss of potency for class IIb | < 4.07 | 4.44 | 4.30 |  |  |  |  |
| Nc1ccccc1NC(=O)c1ccc(CNC(=O)OCc2cccnc2)cc1 [MS-275] |  |  |  |  |  |  |  |  |  |  |  |  |  | < 3.52 | 3.52 | 3.52 |  | pKd (CoREST complex; read-out: Kd^app GSE1): < 3.52; pKd (CoREST complex; read-out: Kd^app HMG20A): < 3.52; pKd (CoREST complex; read-out: Kd^app HMG20B): < 3.52; pKd (CoREST complex; read-out: Kd^app PHF21A): < 3.52; pKd (CoREST complex; read-out: Kd^app RCOR1): < 3.52; pKd (CoREST complex; read-out: Kd^app RCOR2): < 3.52; pKd (CoREST complex; read-out: Kd^app RCOR3): < 3.52; pKd (CoREST complex; read-out: Kd^app ZMYM2): < 3.52; pKd (CoREST complex; read-out: Kd^app ZMYM3): < 3.52 |
| O=C(CCCCCCC(=O)Nc1ccccc1)NO [SAHA, suberoylanilide hydroxamic acid] |  |  |  |  |  |  |  |  |  |  |  |  |  |  | 6.21 | 6.32 | increased steady state acetylation of tubulin and histones |  |
| O=C(/C=C/c1cccc(S(=O)(=O)Nc2ccccc2)c1)NO [belinostat] |  |  |  |  |  |  |  |  |  |  |  |  |  | 6.77 |  |  |  | pKd (HDAC6): 6.39; pKd (HDAC10): 5.35 |
| CCCCOc1ccc(CC(=O)NO)cc1 [bufexamac] | < 4.22 | < 4.22 | < 4.22 | < 4.22 | < 4.22 | < 4.22 | 3.89 | 3.76 | selectivity for HDAC6 and HDAC10 | 5.00 | selectivity for HDAC6 and HDAC10 | 5.00 | < 4.22 | 3.44 |  |  | did not affect the acetylation of histones |  |
| CCCC(CCC)C(=O)O [valproate, valproic acid] | 3.65 | 3.49 | 3.42 | 3.59 | 3.51 | 3.56 | 3.15 | 3.04 |  |  |  | < 5.00 | 3.45 | 3.29 |  |  | elicited staining of acetylated histones | pKd (CoREST complex; protein PHF21A, CoREST complex, read-out: Kd^app PHF21A): 3.36; pKd (HDAC6; read-out: Kd^app HDAC6, protein HDAC6, class II HDAC): < 5.00 |

— US20130071854A1, “METHODS FOR THE IDENTIFICATION AND CHARACTERIZATION OF HDAC INTERACTING COMPOUNDS” (priority 2009, published 2013)
